Assay results from patent US5817755A, “Synthetic peptide analogs of cross-linked N-telopeptides of type I collagen” (Washington Research Foundation, priority 1997, dated 1998).
Non-standard residues stand in square brackets, D forms with d. Residues, ends and D or L forms follow the SMILES beside them. Cya = N[C@@H](CS(=O)(=O)O)C(=O)O; Aad = N[C@@H](CCCC(=O)O)C(=O)O; pGlu = O=C1CC[C@@H](C(=O)O)N1

Test system: mAb 1H11
Experiment: OSTEOMARK competitive immunoassay testing apparent affinity of synthetic peptides for mAb 1H11
Type: binding
Conditions: for Results: peptide binding to mAb 1H11, 1 μg synthetic peptide = X nmole BCE: nanomoles Bone Collagen Equivalents equivalent to 1 μg peptide, back fit into OSTEOMARK standard curve, values between 0.5 and 1 OD averaged; for binding to mAb 1H11 (in words): synthetic peptide, antibody inhibition assay
Description: Generally, a milligram per mL solution of the peptide was made in PBS. The absorbence at A280 was read and the concentration confirmed. Dilutions of the peptide were then made in a buffer such as OSTEOMARK (TM) calibrator diluent (OSTEOMARK Assay, Ostex International, Seattle, Wash.). Working strength concentrations were between 10 and 0.01 micrograms per milliliter.
To test the apparent affinity of the synthetic peptides for mAb 1H11, the OSTEOMARK assay was run using OSTEOMARK kits and components, including monoclonal antibody 1H11. A standard curve was run using OSTEOMARK calibrators. Peptide samples were generally tested at 10, 3, 1, and down to 0.01 μG per mL. The standard OSTEOMARK curve was generated using a four parameter logistic curve fit program (MedData Inc., N.Y., N.Y.). Peptide values were back fit into the standard curve and values were reported in picomoles Bone Collagen Equivalents (BCE)/mL (which equals nanomolar BCE, or nM BCE).
Values in the Table are reported as the number of nanomoles of BCE equivalent to a microgram of a given peptide. Antibody binding values below 500 nMole BCE were considered to be commercially insignificant.

Compound | Results: peptide binding to mAb 1H11, 1 μg synthetic peptide = X nmole BCE [nmole BCE] | binding to mAb 1H11 (in words) | also measured
CC(C)[C@H](NC(=O)CNC(=O)[C@H](Cc1ccccc1)NC(=O)CNC(=O)[C@H](CC(=O)O)NC(=O)[C@H](Cc1ccc(O)cc1)NC(=O)[C@@H]1CCC(=O)N1)C(=O)NCC(=O)O [SEQ ID NO:5, J Y D G F G V G] ([pGlu]YDGFGVG-OH) | 365 |  | 
CC(C)[C@H](NC(=O)CNC(=O)CNC(=O)CNC(=O)[C@H](CC(=O)O)NC(=O)[C@H](Cc1ccc(O)cc1)NC(=O)[C@@H]1CCC(=O)N1)C(=O)NCC(=O)O [SEQ ID NO:6, J Y D G G G V G] ([pGlu]YDGGGVG-OH) | 114 |  | 
CC(C)[C@H](NC(=O)CNC(=O)[C@H](CO)NC(=O)CNC(=O)[C@H](CC(=O)O)NC(=O)[C@H](Cc1ccc(O)cc1)NC(=O)[C@@H]1CCC(=O)N1)C(=O)NCC(=O)O [SEQ ID NO:16, J Y D G S G V G] ([pGlu]YDGSGVG-OH) | 30 |  | 
CC(C)[C@H](NC(=O)CNC(=O)[C@H](CCC(=O)O)NC(=O)[C@@H](NC(=O)[C@H](CC(=O)O)NC(=O)[C@H](Cc1ccc(O)cc1)NC(=O)[C@@H]1CCC(=O)N1)C(C)C)C(=O)NCC(=O)O [SEQ ID NO:37, J Y D V E G V G] ([pGlu]YDVEGVG-OH) | 6 | substantially eliminates mAb 1H11 binding affinity | 
CC(C)[C@H](NC(=O)CNC(=O)[C@H](CC(=O)O)NC(=O)CNC(=O)[C@H](CC(=O)O)NC(=O)[C@H](Cc1ccc(O)cc1)NC(=O)[C@@H]1CCC(=O)N1)C(=O)NCC(=O)O [SEQ ID NO:31, J Y D G D G V G] ([pGlu]YDGDGVG-OH) |  |  | Results: peptide binding to mAb 1H11, 1 μg synthetic peptide = X nmole BCE (listed as 31): 1400 nmole BCE
CC(C)[C@H](NC(=O)CNC(=O)[C@H](CCC(=O)O)NC(=O)CNC(=O)[C@H](CCC(=O)O)NC(=O)[C@H](Cc1ccc(O)cc1)NC(=O)[C@@H]1CCC(=O)N1)C(=O)NCC(=O)O [SEQ ID NO:30, J Y E G E G V G] ([pGlu]YEGEGVG-OH) | 3000 |  | 
CC(C)[C@H](NC(=O)CNC(=O)[C@H](CS(=O)(=O)O)NC(=O)CNC(=O)[C@H](CC(=O)O)NC(=O)[C@H](Cc1ccc(O)cc1)NC(=O)[C@@H]1CCC(=O)N1)C(=O)NCC(=O)O [SEQ ID NO:26, j Y D G X^2 G V G] ([pGlu]YDG[Cya]GVG-OH) | 1000 |  | 
CC[C@H](C)[C@H](NC(=O)CNC(=O)[C@H](CC(=O)O)NC(=O)[C@H](Cc1ccc(O)cc1)NC(=O)[C@@H]1CCC(=O)N1)C(=O)NCC(=O)N[C@H](C(=O)NCC(=O)O)C(C)C [SEQ ID NO:8, J Y D G I G V G] ([pGlu]YDGIGVG-OH) | 250 |  | 
CC(C)[C@H](NC(=O)CNC(=O)[C@H](CCC(=O)O)NC(=O)CNC(=O)[C@H](CC(=O)O)NC(=O)[C@H](Cc1ccc(O)cc1)NC(=O)[C@@H](N)CCC(=O)O)C(=O)NCC(=O)O [EYDGEGVG] (H-EYDGEGVG-OH) |  | not recognized | 
J Y D G E G V G [SEQ ID NO:29] | < 50 | eliminate the requisite binding of mAb 1H11 | 
CSCC[C@H](NC(=O)CNC(=O)[C@H](CC(=O)O)NC(=O)[C@H](Cc1ccc(O)cc1)NC(=O)[C@@H]1CCC(=O)N1)C(=O)NCC(=O)N[C@H](C(=O)NCC(=O)O)C(C)C [SEQ ID NO:11, J Y D G M G V G] ([pGlu]YDGMGVG-OH) | 183 |  | 
CC(C)[C@H](NC(=O)CNC(=O)[C@H](Cc1c[nH]cn1)NC(=O)CNC(=O)[C@H](CC(=O)O)NC(=O)[C@H](Cc1ccc(O)cc1)NC(=O)[C@@H]1CCC(=O)N1)C(=O)NCC(=O)O [SEQ ID NO:7, J Y D G H G V G] ([pGlu]YDGHGVG-OH) | 650 | more limited degree of 1H11 binding | 
CC(C)[C@H](NC(=O)CNC(=O)[C@@H](NC(=O)CNC(=O)[C@H](CC(=O)O)NC(=O)[C@H](Cc1ccc(O)cc1)NC(=O)[C@@H]1CCC(=O)N1)[C@@H](C)O)C(=O)NCC(=O)O [SEQ ID NO:17, J Y D G T G V G] ([pGlu]YDGTGVG-OH) | 252 |  | 
CC(C)[C@H](NC(=O)CNC(=O)[C@H](CC(=O)O)NC(=O)CNC(=O)[C@H](CC(=O)O)NC(=O)[C@H](Cc1ccc(O)cc1)NC(=O)[C@@H]1CCC(=O)N1)C(=O)NCC(=O)O [SEQ ID NO:3, J Y D G D G V G] ([pGlu]YDGDGVG-OH) |  |  | Results: peptide binding to mAb 1H11, 1 μg synthetic peptide = X nmole BCE (listed as 3): 1840 nmole BCE

Continued, in another order:

Results: peptide binding to mAb 1H11, 1 μg synthetic peptide = X nmole BCE [nmole BCE] | binding to mAb 1H11 (in words) | Compound | also measured
104 |  | CC(C)[C@H](NC(=O)CNC(=O)[C@H](Cc1ccc(O)cc1)NC(=O)CNC(=O)[C@H](CC(=O)O)NC(=O)[C@H](Cc1ccc(O)cc1)NC(=O)[C@@H]1CCC(=O)N1)C(=O)NCC(=O)O [SEQ ID NO:20, J Y D G Y G V G] ([pGlu]YDGYGVG-OH) | 
< 50 | prevents mAb 1H11 binding | J Y D G E G V G L [SEQ ID NO:40, b13: -Lys added to the C-terminus] | 
1000 |  | CC(C)[C@H](NC(=O)CNC(=O)[C@H](CC(=O)O)NC(=O)CNC(=O)[C@H](CCC(=O)O)NC(=O)[C@H](Cc1ccc(O)cc1)NC(=O)[C@@H]1CCC(=O)N1)C(=O)NCC(=O)O [SEQ ID NO:32, J Y E G D G V G] ([pGlu]YEGDGVG-OH) | 
23 |  | CC(C)[C@H](NC(=O)CNC(=O)[C@H](CCCNC(=N)N)NC(=O)CNC(=O)[C@H](CC(=O)O)NC(=O)[C@H](Cc1ccc(O)cc1)NC(=O)[C@@H]1CCC(=O)N1)C(=O)NCC(=O)O [SEQ ID NO:15, J Y D G R G V G] ([pGlu]YDGRGVG-OH) | 
2400 | Improved binding | CC(C)[C@H](NC(=O)CNC(=O)[C@H](CCC(=O)O)NC(=O)CNC(=O)[C@H](CC(=O)O)NC(=O)[C@H](Cc1ccc(O)cc1)NC(=O)[C@@H]1CCC(=O)N1)C(=O)NCC(=O)O [SEQ ID NO:4, J Y D G E G V G] ([pGlu]YDGEGVG-OH) | binding to mAb 1H11 (in words) (listed as Gln-Tyr-Asp-Gly-Glu-Gly-Val-Gly): comparable to that of the cross-linked NTx antigen
2056 |  | CC(C)[C@H](NC(=O)CNC(=O)[C@@H]1CCCN1C(=O)CNC(=O)[C@H](CC(=O)O)NC(=O)[C@H](Cc1ccc(O)cc1)NC(=O)[C@@H]1CCC(=O)N1)C(=O)NCC(=O)O [SEQ ID NO:13, J Y D G P G V G] ([pGlu]YDGPGVG-OH) | 
14 | blocks mAb 1H11 binding | CC(C)[C@H](NC(=O)CNC(=O)[C@H](CCC(=O)O)NC(=O)CNC(=O)[C@H](CC(=O)O)NC(=O)[C@H](Cc1ccccc1)NC(=O)[C@@H]1CCC(=O)N1)C(=O)NCC(=O)O [SEQ ID NO:36, J F D G E G V G] ([pGlu]FDGEGVG-OH) | 
135 |  | CC(C)[C@H](NC(=O)CNC(=O)[C@H](CC(N)=O)NC(=O)CNC(=O)[C@H](CC(=O)O)NC(=O)[C@H](Cc1ccc(O)cc1)NC(=O)[C@@H]1CCC(=O)N1)C(=O)NCC(=O)O [SEQ ID NO:12, J Y D G N G V G] ([pGlu]YDGNGVG-OH) | 
< 50 | prevented recognition | CC(C)[C@H](NC(=O)CNC(=O)[C@H](CCC(=O)O)NC(=O)CNC(=O)[C@H](CC(=O)O)NC(=O)[C@H](Cc1ccc(O)cc1)NC(=O)[C@@H]1CCC(=O)N1)C(=O)NCC(N)=O [SEQ ID NO:44, J Y D G E G V X^6] ([pGlu]YDGEGVG-NH2) | 
1300 |  | CC(C)[C@H](NC(=O)CNC(=O)[C@H](Cc1c[nH]c2ccccc12)NC(=O)CNC(=O)[C@H](CC(=O)O)NC(=O)[C@H](Cc1ccc(O)cc1)NC(=O)[C@@H]1CCC(=O)N1)C(=O)NCC(=O)O [SEQ ID NO:19, J Y D G W G V G] ([pGlu]YDGWGVG-OH) | 
148 |  | CC(C)[C@H](NC(=O)CNC(=O)[C@H](CCC(N)=O)NC(=O)CNC(=O)[C@H](CC(=O)O)NC(=O)[C@H](Cc1ccc(O)cc1)NC(=O)[C@@H]1CCC(=O)N1)C(=O)NCC(=O)O [SEQ ID NO:14, J Y D G Q G V G] ([pGlu]YDGQGVG-OH) | 
750 |  | CC(C)[C@H](NC(=O)CNC(=O)[C@H](CCCC(=O)O)NC(=O)CNC(=O)[C@H](CC(=O)O)NC(=O)[C@H](Cc1ccc(O)cc1)NC(=O)[C@@H]1CCC(=O)N1)C(=O)NCC(=O)O [SEQ ID NO:34, J Y D G X^4 G V G] ([pGlu]YDG[Aad]GVG-OH) | 
2500 | excellent binding to mAb 1H11 | J Y D G C G V G [SEQ ID NO:2] | 
